In ChEMBL document CHEMBL1201862, “PubChem BioAssay data set” (2004):
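Grown in 96-well plates, cells were treated for 48 hours with each compound at five concentrations. Insufficient inhibition: endpoint recorded as highest concentration tested. The concentration for 50% growth inhibition is given as GI50.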 Active and inactive are the calls of the source. No stated cut-off is given here; in the data, active = GI50 up to about 1.1 µM and inactive = higher. Residues, ends and D or L forms follow the SMILES beside them. *: point of attachment. Bn = c1ccc(C*)cc1

Columns and labels:
Test in all cases: inhibition of tumour cell growth, NCI panel, 48 h
K562 = tested on: K562
SK-MEL-5 = tested on: SK-MEL-5
NCI-H226 = tested on: NCI-H226
SNB-75 = tested on: SNB-75
UACC-62 = tested on: UACC-62
ACHN = tested on: ACHN
CCRF-CEM = tested on: CCRF-CEM
SR = tested on: SR
PC-3 = tested on: PC-3
UO-31 = tested on: UO-31
BT-549 = tested on: BT-549
OVCAR-8 = tested on: OVCAR-8
MOLT-4 = tested on: MOLT-4
HOP-92 = tested on: HOP-92
SF-295 = tested on: SF-295
HCT-116 = tested on: HCT-116
U-251 = tested on: U-251
COLO 205 = tested on: COLO 205
SF-268 = tested on: SF-268

| SMILES | GI50 (K562) | GI50 (SK-MEL-5) | GI50 (NCI-H226) | GI50 (SNB-75) | GI50 (UACC-62) | GI50 (ACHN) | GI50 (CCRF-CEM) | GI50 (SR) | GI50 (PC-3) | GI50 (UO-31) | GI50 (BT-549) | GI50 (OVCAR-8) | GI50 (MOLT-4) | GI50 (HOP-92) | GI50 (SF-295) | GI50 (HCT-116) | GI50 (U-251) | GI50 (COLO 205) | GI50 (SF-268) |
| --- | --- | --- | --- | --- | --- | --- | --- | --- | --- | --- | --- | --- | --- | --- | --- | --- | --- | --- | --- |
| O=C(O)C1CC(c2ccc(F)cc2)=Nc2ccc(F)cc2S1 (stereo not given) | > 100 µM (inactive) | > 100 µM (inactive) | > 100 µM (inactive) | > 100 µM (inactive) | > 100 µM (inactive) | > 100 µM (inactive) | > 100 µM (inactive) | > 10 µM (inactive) | > 100 µM (inactive) | > 100 µM (inactive) | > 100 µM (inactive) | > 100 µM (inactive) | > 100 µM (inactive) | > 100 µM (inactive) | > 100 µM (inactive) | > 100 µM (inactive) | > 10 µM (inactive) | > 100 µM (inactive) | > 100 µM (inactive) |
| C[C@]12CC[C@H]3[C@@H](CC=C4C[C@@H](O)CC[C@@]43C)[C@@H]1C/C(=C/c1ccccc1)[C@@H]2O | > 23.6 µM (inactive) | 12.1 µM (inactive) | 18.5 µM (inactive) | > 41.9 µM (inactive) | 17.8 µM (inactive) | 16.4 µM (inactive) | 14.6 µM (inactive) | 3.85 µM (inactive) | 18.9 µM (inactive) | 18.1 µM (inactive) | 24.1 µM (inactive) | 20.9 µM (inactive) | > 32.7 µM (inactive) | 32.4 µM (inactive) | > 36.7 µM (inactive) | 8.53 µM (inactive) | > 35.9 µM (inactive) | > 53.6 µM (inactive) | 29.3 µM (inactive) |
| Brc1cc2nn(-c3ccccc3)nc2c2nonc12 | > 100 µM (inactive) | > 100 µM (inactive) | > 100 µM (inactive) | > 100 µM (inactive) | > 100 µM (inactive) | > 100 µM (inactive) | > 100 µM (inactive) | > 100 µM (inactive) | > 100 µM (inactive) | > 100 µM (inactive) | > 100 µM (inactive) | > 100 µM (inactive) | > 100 µM (inactive) | > 100 µM (inactive) | > 100 µM (inactive) | > 100 µM (inactive) | > 100 µM (inactive) | > 100 µM (inactive) | > 100 µM (inactive) |
| CC(C)C[C@H](NC(=O)[C@@H](Cc1cccc2ccccc12)NC(=O)N1CCOCC1)B(O)O | 3.55 µM (inactive) | 3.13 µM (inactive) | 1.61 µM (inactive) | 1.18 µM (inactive) | 4.02 µM (inactive) | 9.25 µM (inactive) | 1.57 µM (inactive) | 3.13 µM (inactive) | 7.82 µM (inactive) | 19.5 µM (inactive) | 3.99 µM (inactive) | 16.7 µM (inactive) | 3.2 µM (inactive) | 2.67 µM (inactive) | 14 µM (inactive) | 2.24 µM (inactive) | 4.57 µM (inactive) | 16.4 µM (inactive) | 2.96 µM (inactive) |
| O=c1oc2ccc3ccccc3c2cc1-c1cn2ccccc2n1 | > 100 µM (inactive) | > 100 µM (inactive) | > 100 µM (inactive) | > 100 µM (inactive) | > 100 µM (inactive) | 22.6 µM (inactive) | > 100 µM (inactive) | > 100 µM (inactive) | > 100 µM (inactive) | 20 µM (inactive) | > 100 µM (inactive) | 51.3 µM (inactive) | > 100 µM (inactive) | 90.6 µM (inactive) | 37.2 µM (inactive) | 14.9 µM (inactive) | 24.2 µM (inactive) | > 100 µM (inactive) | 80.5 µM (inactive) |
| COc1ccc(C2Oc3ccc(Cl)cc3C=C2[N+](=O)[O-])cc1OC (stereo not given) | 0.164 µM (active) | 1.53 µM (inactive) | 1.64 µM (inactive) | 1.13 µM (inactive) | 1.5 µM (inactive) | 1.43 µM (inactive) | 0.0413 µM (active) | 0.0661 µM (active) | 1.32 µM (inactive) | 2 µM (inactive) | 1.15 µM (inactive) | 1.12 µM (active) | 0.216 µM (active) | 1.88 µM (inactive) | 1.48 µM (inactive) | 0.426 µM (active) | 1.05 µM (active) | 1.16 µM (inactive) | 0.617 µM (active) |
| CC1(C)OC1CC/C(=C/CBr)CBr (stereo not given) | 15.8 µM (inactive) | 14.1 µM (inactive) | 21.7 µM (inactive) | 6.82 µM (inactive) | – | 16.9 µM (inactive) | 8.17 µM (inactive) | 13.8 µM (inactive) | 15.6 µM (inactive) | 14.4 µM (inactive) | 16.7 µM (inactive) | – | 16.7 µM (inactive) | 15.4 µM (inactive) | 14.1 µM (inactive) | 18.1 µM (inactive) | 15.6 µM (inactive) | 15.9 µM (inactive) | 15.5 µM (inactive) |
| C=C1CC(CN2CCC(=O)NC2=O)(c2ccccc2)OC1=O (stereo not given) | 2.39 µM (inactive) | 12.4 µM (inactive) | 15.6 µM (inactive) | 18.1 µM (inactive) | 8.55 µM (inactive) | 9.16 µM (inactive) | 1.84 µM (inactive) | 2.09 µM (inactive) | 16.1 µM (inactive) | 18 µM (inactive) | 7.21 µM (inactive) | 16.4 µM (inactive) | 2.25 µM (inactive) | 1.45 µM (inactive) | 20.7 µM (inactive) | 3.35 µM (inactive) | 17.7 µM (inactive) | 2.36 µM (inactive) | 23.6 µM (inactive) |
| NCCOc1cccc(C2(N3CCCCC3)CCCCC2)c1 | 16 µM (inactive) | 16.5 µM (inactive) | > 100 µM (inactive) | 32.7 µM (inactive) | 20.2 µM (inactive) | > 100 µM (inactive) | 16.7 µM (inactive) | 16.1 µM (inactive) | 31.5 µM (inactive) | 13.7 µM (inactive) | 19.1 µM (inactive) | 33.4 µM (inactive) | 19.4 µM (inactive) | 0.773 µM (active) | 28.8 µM (inactive) | 16.2 µM (inactive) | 18.2 µM (inactive) | 12.3 µM (inactive) | 25.6 µM (inactive) |
| Cc1ccc2c(c1)C(O)(c1ccccc1)CCS2 (stereo not given) | 20.2 µM (inactive) | 29 µM (inactive) | 27.5 µM (inactive) | 48.2 µM (inactive) | 22.4 µM (inactive) | 27.2 µM (inactive) | – | 18.3 µM (inactive) | 25.8 µM (inactive) | 19.2 µM (inactive) | 27.3 µM (inactive) | 36.7 µM (inactive) | 15.3 µM (inactive) | 17.7 µM (inactive) | 30.1 µM (inactive) | 20.8 µM (inactive) | 21.7 µM (inactive) | 30.3 µM (inactive) | 38.4 µM (inactive) |
| COc1cc2cc[n+](C)c(Cc3ccc(Oc4cc(Cc5c6cc(OC)c(OC)cc6cc[n+]5C)ccc4OC)cc3)c2cc1OC | > 100 µM (inactive) | > 100 µM (inactive) | > 100 µM (inactive) | > 100 µM (inactive) | > 100 µM (inactive) | > 100 µM (inactive) | > 100 µM (inactive) | > 100 µM (inactive) | 91.4 µM (inactive) | > 100 µM (inactive) | > 100 µM (inactive) | > 100 µM (inactive) | 60.1 µM (inactive) | > 100 µM (inactive) | 59.2 µM (inactive) | > 100 µM (inactive) | > 100 µM (inactive) | > 100 µM (inactive) | > 100 µM (inactive) |
| CCOC(=O)C1=C(C)N(Cc2ccccc2)C2(O)C=CC(O)=C3C(=O)c4ccccc4C(=O)C312 (stereo not given) | 15.1 µM (inactive) | 10.3 µM (inactive) | 20.6 µM (inactive) | 22.1 µM (inactive) | 14.7 µM (inactive) | 17.4 µM (inactive) | 8.61 µM (inactive) | 4.37 µM (inactive) | 19.2 µM (inactive) | 9.73 µM (inactive) | 0.541 µM (active) | 19.1 µM (inactive) | 8.15 µM (inactive) | 17.2 µM (inactive) | 10.3 µM (inactive) | 10.2 µM (inactive) | 16.6 µM (inactive) | 16.8 µM (inactive) | 10.1 µM (inactive) |
| O=C(N/C(=C/c1ccc(Cl)cc1Cl)c1nc2ccccc2s1)c1ccccc1 | 18.5 µM (inactive) | 13.5 µM (inactive) | 13.6 µM (inactive) | 17.9 µM (inactive) | 16.6 µM (inactive) | 6.56 µM (inactive) | 4.72 µM (inactive) | 9.27 µM (inactive) | 18 µM (inactive) | 13.6 µM (inactive) | 21.1 µM (inactive) | 18.6 µM (inactive) | 14.3 µM (inactive) | 52.6 µM (inactive) | 12.7 µM (inactive) | 6.78 µM (inactive) | 2.5 µM (inactive) | 18.3 µM (inactive) | 14 µM (inactive) |
| COC(=O)C(CC(C)C)NC(=O)C(N)Cc1ccc(OCc2ccccc2)cc1 (stereo not given) (H-Tyr(Bn)-Leu-OMe; configuration not given here) | > 10 µM (inactive) | > 10 µM (inactive) | > 10 µM (inactive) | > 10 µM (inactive) | > 10 µM (inactive) | > 10 µM (inactive) | > 10 µM (inactive) | 7.64 µM (inactive) | > 10 µM (inactive) | > 10 µM (inactive) | > 10 µM (inactive) | > 10 µM (inactive) | > 10 µM (inactive) | > 10 µM (inactive) | > 10 µM (inactive) | > 10 µM (inactive) | > 10 µM (inactive) | > 10 µM (inactive) | > 10 µM (inactive) |
| NCCc1ccc(S(=O)(=O)O)cc1[N+](=O)[O-] | – | > 100 µM (inactive) | > 100 µM (inactive) | > 100 µM (inactive) | > 100 µM (inactive) | > 100 µM (inactive) | > 100 µM (inactive) | 4.71 µM (inactive) | > 100 µM (inactive) | > 100 µM (inactive) | > 100 µM (inactive) | > 100 µM (inactive) | – | > 100 µM (inactive) | > 100 µM (inactive) | > 100 µM (inactive) | > 100 µM (inactive) | > 100 µM (inactive) | > 100 µM (inactive) |
